#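 96-well plates; 48 h exposure; 5 concentrations. Endpoints by linear interpolation between flanking doses. Not reached: highest tested concentration assigned. Here, GI50 denotes the concentration required for 50% inhibition of growth.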 The source made the active and inactive calls. Rule as the data show it: active = GI50 up to about 1.1 µM and inactive = higher.
# Columns and labels:
# Test in all cases: DTP human tumour cell line panel, 48 h
# [1] = system: A549
# [2] = system: ACHN
# [3] = system: CCRF-CEM
# [4] = system: COLO 205
# [5] = system: DMS-114
# [6] = system: DMS-273
# [7] = system: EKVX
# [8] = system: HCC 2998
# [9] = system: HCT-116
# [10] = system: HCT-15
# [11] = system: HL-60
# [12] = system: HOP-18
# [13] = system: HOP-62
# [14] = system: HOP-92
# [15] = system: HT-29
# [16] = system: IGROV-1
# [17] = system: K562
# [18] = system: KM-20L2
# [19] = system: KM12
# [20] = system: LOX IMVI
# [21] = system: LXFL 529
# [22] = system: M14
# [23] = system: M19-MEL
# [24] = system: MOLT-4
# [25] = system: NCI-H23
# [26] = system: NCI-H460
# [27] = system: OVCAR-3
# [28] = system: OVCAR-4
# [29] = system: OVCAR-5
# [30] = system: OVCAR-8
# [31] = system: RPMI-8226
# [32] = system: RXF 393
# [33] = system: SF-268
# [34] = system: SF-539
# [35] = system: SK-MEL-28
# [36] = system: SK-MEL-2
# [37] = system: SK-MEL-5
# [38] = system: SN12C
# [39] = system: SNB-19
# [40] = system: SNB-75
# [41] = system: SNB-78
# [42] = system: SR
# [43] = system: SW-620
# [44] = system: TK-10
# [45] = system: U-251
# [46] = system: UACC-257
# [47] = system: UACC-62
# [48] = system: UO-31
# [49] = system: 786-0
# [50] = system: A498
# [51] = system: CAKI-1
# [52] = system: DLD-1
# [53] = system: Malme-3M
# [54] = system: NCI-H226
# [55] = system: NCI-H522
# [56] = system: SF-295
# [57] = system: SK-OV-3
# [58] = system: XF498
smiles,measurement,setting,value
O=C(NNC(=S)Nc1ccccc1)c1nsc2ccccc12,GI50,[1],28.8 µM (inactive)
same,GI50,[2],39.7 µM (inactive)
same,GI50,[3],0.36 µM (active)
same,GI50,[4],39.7 µM (inactive)
same,GI50,[5],24.9 µM (inactive)
same,GI50,[6],17.3 µM (inactive)
same,GI50,[7],25.2 µM (inactive)
same,GI50,[8],55 µM (inactive)
same,GI50,[9],25.2 µM (inactive)
same,GI50,[10],10.7 µM
same,GI50,[11],20.1 µM (inactive)
same,GI50,[12],10.3 µM (inactive)
same,GI50,[13],36.7 µM (inactive)
same,GI50,[14],20.4 µM (inactive)
same,GI50,[15],50 µM (inactive)
same,GI50,[16],31 µM (inactive)
same,GI50,[17],35.7 µM (inactive)
same,GI50,[18],30.8 µM (inactive)
same,GI50,[19],30.4 µM (inactive)
same,GI50,[20],23.7 µM (inactive)
same,GI50,[21],28.1 µM (inactive)
same,GI50,[22],14.3 µM (inactive)
same,GI50,[23],28.9 µM (inactive)
same,GI50,[24],20.7 µM (inactive)
same,GI50,[25],36.6 µM (inactive)
same,GI50,[26],21.5 µM (inactive)
same,GI50,[27],10.3 µM (inactive)
same,GI50,[28],96.8 µM (inactive)
same,GI50,[29],57 µM (inactive)
same,GI50,[30],28.6 µM (inactive)
same,GI50,[31],16 µM (inactive)
same,GI50,[32],40.7 µM (inactive)
same,GI50,[33],30.1 µM (inactive)
same,GI50,[34],31.3 µM (inactive)
same,GI50,[35],34.6 µM (inactive)
same,GI50,[36],19.6 µM (inactive)
same,GI50,[37],24.6 µM (inactive)
same,GI50,[38],31.5 µM (inactive)
same,GI50,[39],34.9 µM (inactive)
same,GI50,[40],25.1 µM (inactive)
same,GI50,[41],47.9 µM (inactive)
same,GI50,[42],22 µM (inactive)
same,GI50,[43],40.6 µM (inactive)
same,GI50,[44],41.3 µM (inactive)
same,GI50,[45],27.1 µM (inactive)
same,GI50,[46],33.3 µM (inactive)
same,GI50,[47],26.2 µM (inactive)
same,GI50,[48],25.5 µM (inactive)
Cc1cc(N(CCC#N)CCC#N)ccc1/C=C(\NC(=O)/C=C/c1ccccc1)C(=O)N=[N+]=[N-],GI50,[49],37.5 µM (inactive)
same,GI50,[50],> 100 µM (inactive)
same,GI50,[1],> 100 µM (inactive)
same,GI50,[2],> 100 µM (inactive)
same,GI50,[51],> 100 µM (inactive)
same,GI50,[3],> 100 µM (inactive)
same,GI50,[4],> 100 µM (inactive)
same,GI50,[52],> 100 µM (inactive)
same,GI50,[5],> 100 µM (inactive)
same,GI50,[6],> 100 µM (inactive)
same,GI50,[7],> 100 µM (inactive)
same,GI50,[8],> 100 µM (inactive)
same,GI50,[9],> 100 µM (inactive)
same,GI50,[10],> 100 µM
same,GI50,[11],> 100 µM (inactive)
same,GI50,[13],32.1 µM (inactive)
same,GI50,[15],> 100 µM (inactive)
same,GI50,[16],> 100 µM (inactive)
same,GI50,[17],> 100 µM (inactive)
same,GI50,[18],> 100 µM (inactive)
same,GI50,[19],2.91 µM (inactive)
same,GI50,[20],> 100 µM (inactive)
same,GI50,[21],> 100 µM (inactive)
same,GI50,[22],> 100 µM (inactive)
same,GI50,[23],> 100 µM (inactive)
same,GI50,[24],> 100 µM (inactive)
same,GI50,[53],> 100 µM (inactive)
same,GI50,[54],> 100 µM (inactive)
same,GI50,[25],> 100 µM (inactive)
same,GI50,[26],> 100 µM (inactive)
same,GI50,[55],30.4 µM (inactive)
same,GI50,[27],7.01 µM (inactive)
same,GI50,[29],> 100 µM (inactive)
same,GI50,[30],> 100 µM (inactive)
same,GI50,[31],> 100 µM (inactive)
same,GI50,[32],34.8 µM (inactive)
same,GI50,[33],99.1 µM (inactive)
same,GI50,[56],17.2 µM (inactive)
same,GI50,[34],52.5 µM (inactive)
same,GI50,[35],> 100 µM (inactive)
same,GI50,[36],> 100 µM (inactive)
same,GI50,[37],> 100 µM (inactive)
same,GI50,[57],55 µM (inactive)
same,GI50,[38],> 100 µM (inactive)
same,GI50,[39],77.8 µM (inactive)
same,GI50,[40],23 µM (inactive)
same,GI50,[41],44.4 µM (inactive)
same,GI50,[43],> 100 µM (inactive)
same,GI50,[44],> 100 µM (inactive)
same,GI50,[45],43.1 µM (inactive)
same,GI50,[46],> 100 µM (inactive)
same,GI50,[47],> 100 µM (inactive)
same,GI50,[48],> 100 µM (inactive)
same,GI50,[58],28.5 µM (inactive)
NC1C[C@H](n2cc(/C=C/Br)c(=O)[nH]c2=O)C[C@@H]1CO (stereo partly specified),GI50,[49],> 100 µM (inactive)
same,GI50,[50],> 100 µM (inactive)
same,GI50,[2],> 100 µM (inactive)
same,GI50,[3],> 100 µM (inactive)
same,GI50,[4],> 100 µM (inactive)
same,GI50,[52],> 100 µM (inactive)
same,GI50,[5],> 100 µM (inactive)
same,GI50,[6],> 100 µM (inactive)
same,GI50,[7],> 100 µM (inactive)
same,GI50,[8],> 100 µM (inactive)
same,GI50,[10],> 100 µM
same,GI50,[11],> 100 µM (inactive)
same,GI50,[12],> 100 µM (inactive)
same,GI50,[13],> 100 µM (inactive)
same,GI50,[15],> 100 µM (inactive)
same,GI50,[17],> 100 µM (inactive)
same,GI50,[18],> 100 µM (inactive)
same,GI50,[20],> 100 µM (inactive)
same,GI50,[21],50.4 µM (inactive)
same,GI50,[22],> 100 µM (inactive)
same,GI50,[23],> 100 µM (inactive)
same,GI50,[24],> 100 µM (inactive)
same,GI50,[54],> 100 µM (inactive)
same,GI50,[25],> 100 µM (inactive)
same,GI50,[26],> 100 µM (inactive)
same,GI50,[55],> 100 µM (inactive)
same,GI50,[27],> 100 µM (inactive)
same,GI50,[28],> 100 µM (inactive)
same,GI50,[30],> 100 µM (inactive)
same,GI50,[31],> 100 µM (inactive)
same,GI50,[32],> 100 µM (inactive)
same,GI50,[33],> 100 µM (inactive)
same,GI50,[56],> 100 µM (inactive)
same,GI50,[34],> 100 µM (inactive)
same,GI50,[35],> 100 µM (inactive)
same,GI50,[57],> 100 µM (inactive)
same,GI50,[38],> 100 µM (inactive)
same,GI50,[39],> 100 µM (inactive)
same,GI50,[40],> 100 µM (inactive)
same,GI50,[44],> 100 µM (inactive)
same,GI50,[45],> 100 µM (inactive)
same,GI50,[46],> 100 µM (inactive)
same,GI50,[47],> 100 µM (inactive)
same,GI50,[48],> 100 µM (inactive)
